According to ChEMBL document CHEMBL1201862, “PubChem BioAssay data set” (2004):
Calls of active or inactive are those of the source.

Legend:
cells [1] = format: functional, cell-based
[2] = molecular target: T1, Trace amine-associated receptor 1 (Homo sapiens, UniProt Q96RJ0); assay: Fluorescence-based cell-based high throughput dose response assay to identify agonists of the human trace amine associated receptor 1 (TAAR1).; format: functional
T1 sequence (Q96RJ0 whole entry): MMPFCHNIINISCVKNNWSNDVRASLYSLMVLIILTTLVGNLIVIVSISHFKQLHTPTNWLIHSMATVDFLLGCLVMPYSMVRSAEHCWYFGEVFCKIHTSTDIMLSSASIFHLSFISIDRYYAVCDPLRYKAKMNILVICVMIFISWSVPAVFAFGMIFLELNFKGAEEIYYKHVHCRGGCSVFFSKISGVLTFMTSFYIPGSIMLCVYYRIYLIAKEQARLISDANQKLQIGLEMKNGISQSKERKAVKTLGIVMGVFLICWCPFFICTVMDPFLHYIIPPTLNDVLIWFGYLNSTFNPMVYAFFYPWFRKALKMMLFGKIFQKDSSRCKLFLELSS

[3] = molecular target: T1, Trace amine-associated receptor 1; assay: Counterscreen for agonists of the human trace amine associated receptor 1 (hTAAR1): Fluorescence-based cell-based high throughput dose response assay to identify hTAAR1 agonist that also desensitize TAAR1 receptor response.; format: functional
cells [4] = format: functional, cell-based; remark: listed apart in the source
[5] = molecular target: T2, Replicative DNA helicase DnaB (Mycobacterium tuberculosis, UniProt P9WMR3); assay: DnaB intein splicing inhibitors, dose response, biochemical, cell-free fluorescence (AID 449749); format: functional
T2 sequence (P9WMR3 whole entry): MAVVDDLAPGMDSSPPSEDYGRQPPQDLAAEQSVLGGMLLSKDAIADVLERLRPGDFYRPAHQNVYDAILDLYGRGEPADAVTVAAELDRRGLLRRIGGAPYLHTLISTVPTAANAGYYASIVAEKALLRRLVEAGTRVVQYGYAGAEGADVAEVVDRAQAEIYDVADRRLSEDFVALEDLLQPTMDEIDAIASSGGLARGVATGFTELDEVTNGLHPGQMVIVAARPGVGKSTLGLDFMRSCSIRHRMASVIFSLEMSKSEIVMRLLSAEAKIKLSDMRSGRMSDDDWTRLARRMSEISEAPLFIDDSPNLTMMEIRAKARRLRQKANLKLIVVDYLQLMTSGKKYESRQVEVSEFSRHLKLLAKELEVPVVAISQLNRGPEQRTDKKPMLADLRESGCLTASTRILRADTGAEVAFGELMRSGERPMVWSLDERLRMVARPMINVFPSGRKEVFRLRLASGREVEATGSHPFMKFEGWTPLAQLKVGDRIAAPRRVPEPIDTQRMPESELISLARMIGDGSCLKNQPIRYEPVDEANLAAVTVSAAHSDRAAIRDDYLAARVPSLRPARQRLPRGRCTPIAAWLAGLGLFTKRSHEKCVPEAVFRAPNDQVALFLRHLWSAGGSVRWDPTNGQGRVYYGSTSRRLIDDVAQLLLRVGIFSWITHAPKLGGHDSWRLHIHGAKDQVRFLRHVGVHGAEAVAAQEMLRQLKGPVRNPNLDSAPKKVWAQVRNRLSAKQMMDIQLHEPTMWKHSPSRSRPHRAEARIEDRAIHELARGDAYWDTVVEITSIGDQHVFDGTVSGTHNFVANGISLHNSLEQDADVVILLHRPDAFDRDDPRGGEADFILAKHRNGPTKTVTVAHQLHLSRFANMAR

Protein RecA = molecular target: T3, Protein RecA (Mycobacterium tuberculosis, UniProt P9WHJ3); assay: Fluorescence Cell-Free Homogeneous Dose Retest to Identify Inhibitors of RecA-Intein Splicing Activity. [Related pubchem assays (depositor defined):AID2097, AID2223, AID489010, AID492950]; format: functional
T3 sequence (P9WHJ3 whole entry): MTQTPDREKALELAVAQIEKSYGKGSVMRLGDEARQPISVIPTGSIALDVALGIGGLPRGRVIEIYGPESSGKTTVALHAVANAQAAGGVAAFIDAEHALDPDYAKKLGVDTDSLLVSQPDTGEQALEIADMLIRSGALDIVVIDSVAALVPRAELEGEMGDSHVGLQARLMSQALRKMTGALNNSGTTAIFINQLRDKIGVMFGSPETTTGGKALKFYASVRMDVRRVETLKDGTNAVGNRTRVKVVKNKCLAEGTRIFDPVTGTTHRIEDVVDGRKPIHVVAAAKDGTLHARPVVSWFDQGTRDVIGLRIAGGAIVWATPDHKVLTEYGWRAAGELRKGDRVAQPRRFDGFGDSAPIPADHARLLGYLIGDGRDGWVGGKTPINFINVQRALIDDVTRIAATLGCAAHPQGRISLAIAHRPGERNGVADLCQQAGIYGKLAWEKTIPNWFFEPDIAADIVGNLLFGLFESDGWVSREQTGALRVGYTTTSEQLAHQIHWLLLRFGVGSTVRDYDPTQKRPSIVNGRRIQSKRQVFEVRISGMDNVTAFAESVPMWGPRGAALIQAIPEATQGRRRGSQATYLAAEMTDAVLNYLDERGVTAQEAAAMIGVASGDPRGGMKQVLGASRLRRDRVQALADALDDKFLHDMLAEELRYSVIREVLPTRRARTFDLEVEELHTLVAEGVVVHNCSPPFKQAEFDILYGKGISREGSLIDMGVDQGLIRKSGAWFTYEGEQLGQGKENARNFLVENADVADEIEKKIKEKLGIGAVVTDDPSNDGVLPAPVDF

fMet-Leu-Phe receptor = molecular target: T4, fMet-Leu-Phe receptor (Homo sapiens, UniProt P21462); assay: formyl peptide receptor binders – dose response (AID 519); format: functional
T4 sequence (P21462 whole entry): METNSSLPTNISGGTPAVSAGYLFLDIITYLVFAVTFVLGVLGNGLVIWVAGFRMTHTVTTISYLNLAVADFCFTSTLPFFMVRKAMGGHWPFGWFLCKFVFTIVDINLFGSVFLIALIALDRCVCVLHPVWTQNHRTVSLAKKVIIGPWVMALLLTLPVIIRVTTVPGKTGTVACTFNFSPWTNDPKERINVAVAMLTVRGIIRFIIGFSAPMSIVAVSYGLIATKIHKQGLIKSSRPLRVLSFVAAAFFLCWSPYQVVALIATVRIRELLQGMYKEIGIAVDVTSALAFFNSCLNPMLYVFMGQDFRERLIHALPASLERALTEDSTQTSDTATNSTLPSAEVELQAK

Nonstructural protein 1 = Nonstructural protein 1 (Influenza A virus, UniProt Q194T2); format: functional, Influenza A virus (A/California/07/2009(H1N1))
Chain of Nonstructural protein 1 (Q194T2 whole entry): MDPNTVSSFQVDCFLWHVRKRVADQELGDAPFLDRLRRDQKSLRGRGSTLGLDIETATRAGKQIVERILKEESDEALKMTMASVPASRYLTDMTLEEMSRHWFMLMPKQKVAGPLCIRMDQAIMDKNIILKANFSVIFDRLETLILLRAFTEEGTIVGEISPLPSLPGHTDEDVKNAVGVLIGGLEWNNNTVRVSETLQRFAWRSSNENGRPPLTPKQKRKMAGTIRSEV

[6] = molecular target: T5, Rac GTPase-activating protein 1 (Homo sapiens, UniProt Q9H0H5); assay: blockers of MgcRacGAP-driven Rac1 GTP hydrolysis – biochemical, ADP Hunter fluorescence, primary and confirmatory, confirmation (AID 624330); format: functional
T5 sequence (Q9H0H5 whole entry): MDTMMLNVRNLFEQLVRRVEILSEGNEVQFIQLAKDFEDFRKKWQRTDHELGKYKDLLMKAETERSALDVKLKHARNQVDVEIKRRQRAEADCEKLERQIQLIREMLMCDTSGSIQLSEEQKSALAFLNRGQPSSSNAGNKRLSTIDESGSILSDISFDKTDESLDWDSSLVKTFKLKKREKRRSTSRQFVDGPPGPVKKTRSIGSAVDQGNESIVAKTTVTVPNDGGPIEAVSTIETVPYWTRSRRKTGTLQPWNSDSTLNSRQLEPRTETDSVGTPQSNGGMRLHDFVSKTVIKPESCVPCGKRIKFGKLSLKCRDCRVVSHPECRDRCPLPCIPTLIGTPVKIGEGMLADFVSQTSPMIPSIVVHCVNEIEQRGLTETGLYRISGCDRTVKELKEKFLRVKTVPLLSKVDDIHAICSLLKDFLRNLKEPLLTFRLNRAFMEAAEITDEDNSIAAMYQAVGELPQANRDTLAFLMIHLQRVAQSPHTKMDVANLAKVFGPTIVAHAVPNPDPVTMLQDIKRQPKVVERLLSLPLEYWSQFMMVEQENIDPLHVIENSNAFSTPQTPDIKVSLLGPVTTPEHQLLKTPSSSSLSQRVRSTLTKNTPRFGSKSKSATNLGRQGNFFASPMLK

[7] = HGIII-sPLA2 enzyme inhibition potency – biochemical, QFRET, IC50, dose response (AID 743457);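 further: green fluorescence rise as the enzyme cleaves BODIPY PC-A2 in liposomes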
[8] = potency of ADAM10 substrate cleavage blockers – biochemical, QFRET, dose response (AID 743254);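 further: ADAM10 enzyme with the DM2 quenched FRET peptide as substrate; EDANS fluorescence gain as the protease cuts the substrate; inhibitor potency against ADAM10 proteolytic activity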
[9] = molecular target: Disintegrin and metalloproteinase domain-containing protein 17 (Homo sapiens, UniProt P78536); assay: inhibition of ADAM17 substrate cleavage – biochemical, quenched FRET substrate, counter-screen for ADAM10 exosite inhibitor project, dose response (AID 743253)
Chain of Disintegrin and metalloproteinase domain-containing protein 17 (P78536 whole entry, the tested form may be a part): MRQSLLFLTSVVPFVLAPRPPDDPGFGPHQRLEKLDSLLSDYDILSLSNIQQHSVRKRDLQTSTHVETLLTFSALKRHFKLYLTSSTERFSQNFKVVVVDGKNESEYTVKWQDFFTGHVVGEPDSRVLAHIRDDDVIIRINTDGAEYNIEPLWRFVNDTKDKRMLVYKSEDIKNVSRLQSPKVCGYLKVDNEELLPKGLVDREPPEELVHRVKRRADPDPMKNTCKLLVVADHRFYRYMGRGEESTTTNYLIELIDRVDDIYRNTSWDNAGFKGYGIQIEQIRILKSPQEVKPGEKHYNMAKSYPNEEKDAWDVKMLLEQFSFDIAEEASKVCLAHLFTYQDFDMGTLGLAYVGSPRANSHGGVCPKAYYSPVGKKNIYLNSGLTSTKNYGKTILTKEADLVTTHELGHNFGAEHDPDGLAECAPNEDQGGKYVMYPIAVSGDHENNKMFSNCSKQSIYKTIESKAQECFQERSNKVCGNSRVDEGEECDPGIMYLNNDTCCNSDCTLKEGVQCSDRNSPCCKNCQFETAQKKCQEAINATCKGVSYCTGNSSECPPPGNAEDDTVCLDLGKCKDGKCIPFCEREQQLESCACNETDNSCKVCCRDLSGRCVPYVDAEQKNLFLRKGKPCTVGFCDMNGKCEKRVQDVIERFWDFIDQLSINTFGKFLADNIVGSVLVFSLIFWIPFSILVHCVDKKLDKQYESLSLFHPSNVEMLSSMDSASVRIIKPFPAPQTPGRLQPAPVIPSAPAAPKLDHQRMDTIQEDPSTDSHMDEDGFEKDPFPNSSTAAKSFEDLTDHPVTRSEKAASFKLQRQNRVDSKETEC

[10] = molecular target: DNA dC->dU-editing enzyme APOBEC-3G (Homo sapiens, UniProt Q9HC16); assay: Dose Response confirmation of small molecule APOBEC3G DNA Deaminase Inhibitors via a fluorescence-based single-stranded DNA deaminase assay. [Related pubchem assays (depositor defined):AID493012, AID493028]; format: functional
Chain of DNA dC->dU-editing enzyme APOBEC-3G (Q9HC16 whole entry): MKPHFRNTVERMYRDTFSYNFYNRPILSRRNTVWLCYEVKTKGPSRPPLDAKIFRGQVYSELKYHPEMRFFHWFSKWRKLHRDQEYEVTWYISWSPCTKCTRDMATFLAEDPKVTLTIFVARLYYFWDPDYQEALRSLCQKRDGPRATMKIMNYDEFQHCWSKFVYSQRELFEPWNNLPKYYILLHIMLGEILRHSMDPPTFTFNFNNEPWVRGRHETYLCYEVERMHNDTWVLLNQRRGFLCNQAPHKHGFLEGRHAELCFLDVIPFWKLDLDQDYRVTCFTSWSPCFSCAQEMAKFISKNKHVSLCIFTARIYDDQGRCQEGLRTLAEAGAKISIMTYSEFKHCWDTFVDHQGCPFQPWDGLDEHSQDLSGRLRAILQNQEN

SMILES	IC50 (cells [1])	EC50 [2]	IC50 [3]	EC50 (cells [4])	also measured
Cc1cccc(C(CC(=O)NCCc2ccccc2)c2ccccc2)c1O (stereo not drawn)	> 29.9 µM (inactive)	3.5 µM (active)	4.62 µM (active)	> 29.9 µM (inactive)	–
CN(CCc1ccccc1)c1cc2c(c3c1ccn3C)C1CCC2O1 (stereo not drawn)	> 29.9 µM (inactive)	1.18 µM (active)	5.22 µM (active)	> 29.9 µM (inactive)	–
CSCCC1C(C#N)=C(N)Oc2[nH]nc(-c3cccs3)c21 (stereo not drawn)	–	–	–	–	AC50 [5]: 3.12 µM (active); EC50 (Protein RecA): 1.43 µM (active); Ki (fMet-Leu-Phe receptor): > 66.7 µM (inactive)
COc1cc(OC)c(C2Nc3cccc4cccc(c34)N2)c(OC)c1	–	–	–	–	IC50 (Nonstructural protein 1): > 100 µM (active); IC50 [6]: 65.2 µM (active); IC50 [7]: 83.1 µM (inactive)
N#Cc1c(NC(=O)CCn2cnc3ccccc3c2=O)oc(-c2ccccc2)c1-c1ccccc1	–	–	–	–	IC50 [8]: > 69.5 µM (inactive); IC50 [9]: > 69.5 µM (inactive)
CC/C(NCCc1ccccc1)=C1/C(=O)NC(=O)N(C2CCCCC2)C1=O	> 29.9 µM (inactive)	2.87 µM (active)	6.23 µM (active)	> 29.9 µM (inactive)	–
CCN(CC)c1ccc(NC(=O)COc2ccccc2C)cc1S(=O)(=O)Nc1ccccc1OC	–	–	–	–	IC50 [10]: 70.1 µM (active); IC50 [8]: > 69.5 µM (inactive); IC50 [9]: > 69.5 µM (inactive)
